Source: the supplement of paper PMC10307832

Key:
Assay in all cases: relative viability (nuclei count vs DMSO), 5 days (fraction); higher = more cells survive
HCC-78 = test system: HCC-78
Summary of the method: (§1)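 Five library-drug doses in √10 steps were combined with a fixed anchor-drug dose, or a single drug was given alone, by pin tool to lung cancer cell lines in 1536-well plates the day after seeding. Nuclei were stained and counted after 5 days. Relative viability is the nuclei count in treated wells over that in vehicle wells, taken as the median of duplicate plates.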

NCI-H2087 = test system: NCI-H2087
Summary of the method: as §1

NCI-H1915 = test system: NCI-H1915
Summary of the method: as §1

H3255 = test system: H3255
Summary of the method: as §1

NCI-H661 = test system: NCI-H661
Summary of the method: as §1

NCI-H2405 = test system: NCI-H2405
Summary of the method: as §1

NCI-H2347 = test system: NCI-H2347
Summary of the method: as §1

NCI-H650 = test system: NCI-H650
Summary of the method: as §1

HCC-827 = test system: HCC-827
Summary of the method: as §1

ChaGo-K-1 = test system: ChaGo-K-1
Summary of the method: as §1

COR-L 105 = test system: COR-L 105
Summary of the method: as §1

PC-14 = test system: PC-14
Summary of the method: as §1

RERF-LC-KJ = test system: RERF-LC-KJ
Summary of the method: as §1

LCLC-97TM1 = test system: LCLC-97TM1
Summary of the method: as §1

LC-2-ad = test system: LC-2-ad
Summary of the method: as §1

EPLC-272H = test system: EPLC-272H
Summary of the method: as §1

NCI-H1666 = test system: NCI-H1666
Summary of the method: as §1

NCI-H520 = test system: NCI-H520
Summary of the method: as §1

NCI-H23 = test system: NCI-H23
Summary of the method: as §1

NCI-H647 = test system: NCI-H647
Summary of the method: as §1

NCI-H2126 = test system: NCI-H2126
Summary of the method: as §1

201T = test system: 201T
Summary of the method: as §1

`Cc1sc2c(c1C)C(c1ccc(Cl)cc1)=N[C@@H](CC(=O)OC(C)(C)C)c1nnc(C)n1-2` [JQ1] + N=C(N)NC(=N)NCCc1ccccc1 [Phenformin] (partner 250 µM) gave a relative viability (HCC-78; first compound 0.04 µM) of 0.727, a relative viability (HCC-78; first compound 0.1265 µM) of 0.657 and a relative viability (HCC-78; first compound 0.4 µM) of 0.727. It also gave a relative viability (HCC-78; first compound 1.265 µM) of 0.515, a relative viability (HCC-78; first compound 4 µM) of 0.435 and a relative viability (NCI-H2087; first compound 0.04 µM) of 0.52. It also gave a relative viability (NCI-H2087; first compound 0.1265 µM) of 0.406, a relative viability (NCI-H2087; first compound 0.4 µM) of 0.406 and a relative viability (NCI-H2087; first compound 1.265 µM) of 0.266. It also gave a relative viability (NCI-H2087; first compound 4 µM) of 0.273, a relative viability (NCI-H1915; first compound 0.04 µM) of 0.347 and a relative viability (NCI-H1915; first compound 0.1265 µM) of 0.334. The relative viability (NCI-H1915; first compound 0.4 µM) was 0.329, the relative viability (NCI-H1915; first compound 1.265 µM) was 0.212 and the relative viability (NCI-H1915; first compound 4 µM) was 0.177. It also gave a relative viability (H3255; first compound 0.04 µM) of 0.349, a relative viability (H3255; first compound 0.1265 µM) of 0.348 and a relative viability (H3255; first compound 0.4 µM) of 0.35. For the same compound, the relative viability (H3255; first compound 1.265 µM) was 0.36, the relative viability (H3255; first compound 4 µM) was 0.36 and the relative viability (NCI-H661; first compound 0.04 µM) was 0.264. The relative viability (NCI-H661; first compound 0.1265 µM) was 0.315, the relative viability (NCI-H661; first compound 0.4 µM) was 0.286 and the relative viability (NCI-H661; first compound 1.265 µM) was 0.302. For the same compound, the relative viability (NCI-H661; first compound 4 µM) was 0.282, the relative viability (NCI-H2405; first compound 0.04 µM) was 0.381 and the relative viability (NCI-H2405; first compound 0.1265 µM) was 0.224. For the same compound, the relative viability (NCI-H2405; first compound 0.4 µM) was 0.385, the relative viability (NCI-H2405; first compound 1.265 µM) was 0.239 and the relative viability (NCI-H2405; first compound 4 µM) was 0.223. For the same compound, the relative viability (NCI-H2347; first compound 0.04 µM) was 0.332, the relative viability (NCI-H2347; first compound 0.1265 µM) was 0.504 and the relative viability (NCI-H2347; first compound 0.4 µM) was 0.323. The relative viability (NCI-H2347; first compound 1.265 µM) was 0.358, the relative viability (NCI-H2347; first compound 4 µM) was 0.233 and the relative viability (NCI-H650; first compound 0.04 µM) was 0.418. For the same compound, the relative viability (NCI-H650; first compound 0.1265 µM) was 0.358, the relative viability (NCI-H650; first compound 0.4 µM) was 0.313 and the relative viability (NCI-H650; first compound 1.265 µM) was 0.273. The relative viability (NCI-H650; first compound 4 µM) was 0.25, the relative viability (HCC-827; first compound 0.04 µM) was 0.395 and the relative viability (HCC-827; first compound 0.4 µM) was 0.349. For the same compound, the relative viability (HCC-827; first compound 1.265 µM) was 0.468, the relative viability (HCC-827; first compound 4 µM) was 0.449 and the relative viability (ChaGo-K-1; first compound 0.04 µM) was 0.436. For the same compound, the relative viability (ChaGo-K-1; first compound 0.1265 µM) was 0.495, the relative viability (ChaGo-K-1; first compound 0.4 µM) was 0.401 and the relative viability (ChaGo-K-1; first compound 1.265 µM) was 0.324. For the same compound, the relative viability (ChaGo-K-1; first compound 4 µM) was 0.286, the relative viability (COR-L 105; first compound 0.04 µM) was 0.432 and the relative viability (COR-L 105; first compound 0.1265 µM) was 0.239. The relative viability (COR-L 105; first compound 0.4 µM) was 0.217, the relative viability (COR-L 105; first compound 1.265 µM) was 0.22 and the relative viability (COR-L 105; first compound 4 µM) was 0.289. The relative viability (PC-14; first compound 0.04 µM) was 0.485, the relative viability (PC-14; first compound 0.1265 µM) was 0.237 and the relative viability (PC-14; first compound 0.4 µM) was 0.432. For the same compound, the relative viability (PC-14; first compound 1.265 µM) was 0.154, the relative viability (PC-14; first compound 4 µM) was 0.167 and the relative viability (RERF-LC-KJ; first compound 0.04 µM) was 0.402. The relative viability (RERF-LC-KJ; first compound 0.1265 µM) was 0.374, the relative viability (RERF-LC-KJ; first compound 0.4 µM) was 0.324 and the relative viability (RERF-LC-KJ; first compound 1.265 µM) was 0.316. The relative viability (RERF-LC-KJ; first compound 4 µM) was 0.292, the relative viability (LCLC-97TM1; first compound 0.04 µM) was 0.423 and the relative viability (LCLC-97TM1; first compound 0.1265 µM) was 0.42. The relative viability (LCLC-97TM1; first compound 0.4 µM) was 0.446, the relative viability (LCLC-97TM1; first compound 1.265 µM) was 0.328 and the relative viability (LCLC-97TM1; first compound 4 µM) was 0.203. It also gave a relative viability (LC-2-ad; first compound 0.04 µM) of 0.537, a relative viability (LC-2-ad; first compound 0.1265 µM) of 0.468 and a relative viability (LC-2-ad; first compound 0.4 µM) of 0.401. It also gave a relative viability (LC-2-ad; first compound 1.265 µM) of 0.222, a relative viability (LC-2-ad; first compound 4 µM) of 0.294 and a relative viability (EPLC-272H; first compound 0.04 µM) of 0.33. The relative viability (EPLC-272H; first compound 0.1265 µM) was 0.262, the relative viability (EPLC-272H; first compound 0.4 µM) was 0.249 and the relative viability (EPLC-272H; first compound 1.265 µM) was 0.294. For the same compound, the relative viability (EPLC-272H; first compound 4 µM) was 0.188, the relative viability (NCI-H1666; first compound 0.04 µM) was 0.572 and the relative viability (NCI-H1666; first compound 0.1265 µM) was 0.596. The relative viability (NCI-H1666; first compound 0.4 µM) was 0.501, the relative viability (NCI-H1666; first compound 1.265 µM) was 0.516 and the relative viability (NCI-H1666; first compound 4 µM) was 0.486. For the same compound, the relative viability (NCI-H520; first compound 0.04 µM) was 0.475, the relative viability (NCI-H520; first compound 0.1265 µM) was 0.614 and the relative viability (NCI-H520; first compound 0.4 µM) was 0.544. For the same compound, the relative viability (NCI-H520; first compound 1.265 µM) was 0.275, the relative viability (NCI-H520; first compound 4 µM) was 0.321 and the relative viability (NCI-H23; first compound 0.04 µM) was 0.749. It also gave a relative viability (NCI-H23; first compound 0.1265 µM) of 0.768, a relative viability (NCI-H23; first compound 0.4 µM) of 0.812 and a relative viability (NCI-H23; first compound 1.265 µM) of 0.414. It also gave a relative viability (NCI-H23; first compound 4 µM) of 0.592, a relative viability (NCI-H647; first compound 0.04 µM) of 0.433 and a relative viability (NCI-H647; first compound 0.1265 µM) of 0.306. For the same compound, the relative viability (NCI-H647; first compound 0.4 µM) was 0.229, the relative viability (NCI-H647; first compound 1.265 µM) was 0.0637 and the relative viability (NCI-H647; first compound 4 µM) was 0.0562. The relative viability (NCI-H2126; first compound 0.04 µM) was 0.552, the relative viability (NCI-H2126; first compound 0.1265 µM) was 0.555 and the relative viability (NCI-H2126; first compound 0.4 µM) was 0.489. It also gave a relative viability (NCI-H2126; first compound 1.265 µM) of 0.39, a relative viability (NCI-H2126; first compound 4 µM) of 0.411 and a relative viability (201T; first compound 0.04 µM) of 0.47. For the same compound, the relative viability (201T; first compound 0.1265 µM) was 0.415, the relative viability (201T; first compound 0.4 µM) was 0.408 and the relative viability (201T; first compound 1.265 µM) was 0.377. For the same compound, the relative viability (201T; first compound 4 µM) was 0.344.
